What was measured:
[1] = biological target: T1, Rat GPR40 (Rattus norvegicus, UniProt Q8K3T4); assay: EC50 by FLIPR calcium assay in CHO cells stably expressing rat GPR40; format: cell-based; conditions: intracellular calcium, FLIPR, stable CHO line; read-out: EC50 Rat GPR40
T1 construct: expressed in transfected cells
Method: For determination of EC50 values, the CHO cell lines in which human-, mouse- and rat-derived GPR40 was stably expressed were used. Unless otherwise indicated, these CHO cell lines were incubated in α-MEM medium (Invitrogen) supplemented with 10% fetal calf serum (Invitrogen).
On the day before assay, the cells incubated to almost confluent stage were rinsed with PBS (Invitrogen), then scraped in 0.05% trypsin-EDTA solution (Invitrogen) and recovered by centrifugal operation. The number of the cells obtained was counted and diluted so as to contain 3×10^5 cells/1 mL of the medium. The dilution was dispensed in a Black welled 96-well plate (Coster) in 100 μL/well, followed by incubation overnight in a CO2 incubator. To the thus prepared CHO cells, various test samples were added and the changes in intracellular calcium level in this case were measured using FLIPR (Molecular Device). In order to determine the changes in the intracellular calcium ion level on FLIPR, the cells were pre-treated by the following procedures.
First, for the purpose of adding a fluorescent dye Fluo-3 AM (DOJIN) to the cells or washing the cells immediately before the FLIPR assay, an assay buffer was prepared. A solution obtained by adding 20 mL of 1M HEPES (pH 7.4) (DOJIN) to 1000 mL of HBSS (Invitrogen) was prepared (hereinafter HBSS/HEPES solution), to which 10 mL of a solution mixture obtained by dissolving 710 mg of Probenecid (Sigma) in 5 mL of 1N NaOH and further adding 5 mL of HBSS/HEPES solution was added. The resulting solution was used as the assay buffer. Next, 50 μg of Fluo-3AM was dissolved in 21 μL of DMSO (Wako) and an equal volume of 20% Pulronic acid (Molecular Probes) was added to and mixed with the solution. The mixture was then added to 10.6 mL of the assay buffer supplemented with 105 μL of fetal calf serum to prepare a fluorescent dye solution. […], the medium for the CHO cells again plated in a Black welled 96-well plate was removed. Immediately thereafter, the fluorescent dye solution was dispensed in 100 μL each/well and the cells were incubated in a CO2 incubator for an hour so that the fluorescent dye was taken up into the cells. The cells after the incubation was washed with the assay buffer described above and set on FLIPR. […] After the pre-treatment above was made, the changes in intracellular calcium level after the addition of various test samples were measured on FLIPR.

[2] = system: MIN6 cells; assay: FLIPR intracellular calcium assay using MIN6; format: cell-based, mouse; conditions: 10 μM fatty acid
Method: Mouse pancreatic β cell line MIN6 incubated in a flask was scraped using PBS containing 2.5 mM EDTA and diluted so as to contain 3×10^5 cells/1 mL of the medium. The dilution was dispensed in a Black welled 96-well plate (Coster) in 100 μL/well, followed by incubation in a CO2 incubator for 2 days. The medium used was 4.5 g/l of glucose-containing Dulbecco's Modified Eagle Medium (DMEM, Invitrogen, Inc.) supplemented with 15% fetal calf serum (ThermoTrace, Inc.), 5.5 μM 2-mercaptethanol (Invitrogen, Inc.), 20 mM HEPES pH 7.3, 100 U/ml penicillin and 100 μg/ml streptomycin. To the thus prepared MIN6 cells, various fatty acids (10 μM) were added and the changes in intracellular calcium level in this case were measured using FLIPR (Molecular Device). The changes in the intracellular calcium ion level on FLIPR were assayed in accordance with the procedures described in EXAMPLE 24.

[3] = biological target: T2, human GPR40 (Homo sapiens, UniProt O14842); assay: cAMP production in human GPR40-expressed CHO cells; format: cell-based; conditions: 10 minutes; for cAMP production activity, presence of forskolin: 2 μM forskolin
T2 construct: The resulting fragment (ca. 1 kb) was introduced into vector pAKKO-111, which was used for transfection of CHO cells; expressed in transfected cells
T2 sequence (O14842 whole entry, the tested form may be a part): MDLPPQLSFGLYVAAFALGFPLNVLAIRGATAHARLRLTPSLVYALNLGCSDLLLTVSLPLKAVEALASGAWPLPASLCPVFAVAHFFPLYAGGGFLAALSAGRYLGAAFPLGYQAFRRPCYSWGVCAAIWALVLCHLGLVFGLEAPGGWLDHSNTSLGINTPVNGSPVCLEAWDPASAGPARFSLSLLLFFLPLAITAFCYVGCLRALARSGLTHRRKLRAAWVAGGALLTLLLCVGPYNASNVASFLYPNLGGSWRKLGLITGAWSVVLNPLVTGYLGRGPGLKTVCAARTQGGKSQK
Method: Human and mouse GPR40-expressed CHO cells were incubated for 20 hours in a 96-well Plate at a density of 1×10^5/well. After the cells were washed twice with 100 μl of Assay Buffer (DMEM (Invitrogen) containing 0.1 mM IBMX (Wako Pure Chemical) and 0.1 mM Ro-20-1724 (Biomol)), DHA, solutions of linoleic acid and […] (both by SIGMA) in Assay Buffer in the presence or absence of 2 μM forskolin (Wako Pure Chemical) were added to the cells, followed by reacting at 37° C. for 10 minutes. After the reaction, the cells were lysed in accordance with the formulation of cAMP Screen (ABI) and the cAMP level in the cells was assayed.

T1 sequence (Q8K3T4 whole entry): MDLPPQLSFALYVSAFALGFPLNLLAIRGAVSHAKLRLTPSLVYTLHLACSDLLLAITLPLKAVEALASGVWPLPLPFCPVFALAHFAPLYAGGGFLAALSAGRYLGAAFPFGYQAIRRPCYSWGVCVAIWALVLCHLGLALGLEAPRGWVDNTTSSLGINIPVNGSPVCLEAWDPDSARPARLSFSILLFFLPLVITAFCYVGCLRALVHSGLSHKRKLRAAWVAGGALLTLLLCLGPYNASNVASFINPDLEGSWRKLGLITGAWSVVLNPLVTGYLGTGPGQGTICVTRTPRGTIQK

Row | EC50 [1] [µM] | cAMP production activity, presence of forskolin [3] | Compound | intracellular Ca^2+ level in MIN6 [2] | cAMP production activity, absence of forskolin [3]
1 | 4.1 ± 0.5 | weakly shown | CCCCC/C=C\C/C=C\CCCCCCCC(=O)O [Linoleic acid (C18:2), Linoleic acid] | increased | did not show any cAMP production activity
2 | 5.4 ± 1.1 | weakly shown | CCCCC/C=C\C/C=C\C/C=C\CCCCC(=O)O [γ-Linolenic acid (C18:3), γ-Linolenic acid] | increased | did not show any cAMP production activity

Continued, compound first:

Row | Compound | EC50 [1] [µM] | cAMP production activity, presence of forskolin [3] | intracellular Ca^2+ level in MIN6 [2] | cAMP production activity, absence of forskolin [3]
3 | CCCCC/C=C\C/C=C\C/C=C\C/C=C\CCCC(=O)O [Arachidonic acid (C20:4), Arachidonic acid] | 8 ± 0.6 | – | increased | –
4 | CC/C=C\C/C=C\C/C=C\C/C=C\C/C=C\C/C=C\CCC(=O)O [Docosahexaenoic acid (C22:6), 4Z,7Z,10Z,13Z,16Z,19Z-docosahexaenoic acid] | 13 ± 1.7 | weakly shown | increased | did not show any cAMP production activity
5 | CCCCCCCC/C=C\CCCCCCCC(=O)O [Oleic acid (C18:1), Oleic acid] | 3.4 ± 0.4 | – | increased | –

Reference: patent US7214495B2, “Screening method” (Takeda Pharmaceutical Company Limited, priority 2002, dated 2007)
